Test results published in patent US20040198609A1, “4-alkyl-substituted thienyloxy-pyridines” (priority 2001, published 2004).

What was measured:
Test in all cases: greenhouse post-emergence herbicidal test
Type in all cases: in vivo
Settings in all cases: application rates of 0.25 or 0.125 kg/ha
Amaranthus retroflexus = tested on: Amaranthus retroflexus
From the text: (§1) The seeds of the test plants were sown separately for each species. For the post-emergence treatment, the test plants were first grown to a height of from 3 to 15 cm, depending on the plant habit, and only then treated with the active compounds which had been suspended or emulsified in water. The test plants were for this purpose either sown directly and grown in the same containers, or they were first grown separately as seedlings and transplanted into the test containers a few days prior to treatment. The application rate for the post-emergence treatment was 0.25 or 0.125 kg of a.s. (active substance)/ha. Depending on the species, the plants were kept at 10-25° C. or 20-35° C. The test period extended over 2 to 4 weeks. During this time, the plants were tended, and their response to the individual treatments was evaluated. Evaluation was carried out using a scale from 0 to 100. 100 means no emergence of the plants, or complete destruction of at least the above-ground parts, and 0 means no damage, or normal course of growth. The plants used in the greenhouse experiments were of the following species: [table]

Chenopodium album = tested on: Chenopodium album
From the text: as §1

Galium aparine = tested on: Galium aparine
From the text: as §1

Pharbitis purpurea = tested on: Pharbitis purpurea
From the text: as §1

Measured: post-emergence action

Cc1c(F)c(Oc2csc(C(F)(F)F)c2)nc(-n2ccc(C(F)(F)F)n2)c1F [compound 3.1, 3,5-Difluoro-4-methyl-2-(3-trifluoromethyl-1H-pyrazol-1-yl)-6-(5-trifluoromethyl-3-thienyloxy)pyridine]
very good: all assays above
